Biological target: Ras-related protein Rab-7a (Canis lupus familiaris, UniProt P18067)
Experiment: Rab7 GTP binding inhibitors, analog potency, SAR follow-up, biochemical, oxadiazole analogs, multiplex bead flow cytometry (AID 2031)
Settings: inactive by the depositor's call

Chain of Ras-related protein Rab-7a (P18067 whole entry): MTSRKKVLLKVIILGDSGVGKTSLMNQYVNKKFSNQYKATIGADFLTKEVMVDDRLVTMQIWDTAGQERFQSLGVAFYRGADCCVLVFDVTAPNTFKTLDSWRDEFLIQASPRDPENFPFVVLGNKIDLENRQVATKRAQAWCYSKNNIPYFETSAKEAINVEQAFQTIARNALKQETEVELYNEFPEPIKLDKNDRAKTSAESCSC

Structure (SMILES) | EC50 [µM]
COc1ccc(-c2noc(CCC(=O)N3CCN(c4cccc(Cl)c4)CC3)n2)cc1 | 31
COc1ccc(-c2ccc(CCC(=O)N3CCN(c4cc(C)ccc4C)CC3)s2)cc1 | 30
COc1ccc(-c2ccc(CCC(=O)N3CCN(c4cc(C)ccc4C)CC3)[nH]2)cc1 [1-[4-(2,5-dimethylphenyl)piperazin-1-yl]-3-[5-(4-methoxyphenyl)-1H-pyrrol-2-yl]propan-1-one] | 30
COc1ccc(-c2noc(CCC(=O)N3CCN(c4ccccc4Cl)CC3)n2)cc1 [1-[4-(2-chlorophenyl)piperazin-1-yl]-3-[3-(4-methoxyphenyl)-1,2,4-oxadiazol-5-yl]propan-1-one] | 2.28
COc1ccc(-c2noc(CCC(=O)N3CCN(c4ccccc4F)CC3)n2)cc1 [1-[4-(2-fluorophenyl)piperazin-1-yl]-3-[3-(4-methoxyphenyl)-1,2,4-oxadiazol-5-yl]propan-1-one] | 0.632
COc1ccc(-c2noc(CCC(=O)N3CCN(c4cccc(Br)c4)CC3)n2)cc1 [1-[4-(3-bromophenyl)-1-piperazinyl]-3-[3-(4-methoxyphenyl)-1,2,4-oxadiazol-5-yl]-1-propanone] | 30
COc1ccc(-c2noc(CCC(=O)N3CCN(c4cccc(F)c4)CC3)n2)cc1 [1-[4-(3-fluorophenyl)piperazin-1-yl]-3-[3-(4-methoxyphenyl)-1,2,4-oxadiazol-5-yl]propan-1-one] | 30
COc1ccc(-c2noc(CCC(=O)N3CCN(c4ccc(Br)cc4)CC3)n2)cc1 [1-[4-(4-bromophenyl)piperazin-1-yl]-3-[3-(4-methoxyphenyl)-1,2,4-oxadiazol-5-yl]propan-1-one] | 30
COc1ccc(-c2noc(CCC(=O)N3CCN(c4cccc(C(F)(F)F)c4)CC3)n2)cc1 [1-{3-[3-(4-methoxyphenyl)-1,2,4-oxadiazol-5-yl]propanoyl}-4-[3-(trifluoromethyl)phenyl]piperazine] | 30
COc1ccc(-c2noc(CCC(=O)N3CCN(c4ccccc4)CC3)n2)cc1 [3-[3-(4-methoxyphenyl)-1,2,4-oxadiazol-5-yl]-1-(4-phenylpiperazin-1-yl)propan-1-one] | 30
COc1ccc(-c2noc(CCC(=O)N3CCN(c4ccccc4OC)CC3)n2)cc1 [3-[3-(4-methoxyphenyl)-1,2,4-oxadiazol-5-yl]-1-[4-(2-methoxyphenyl)-1-piperazinyl]-1-propanone] | 30
COc1ccc(-c2noc(CCC(=O)N3CCN(c4ccc(OC)cc4)CC3)n2)cc1 [3-[3-(4-methoxyphenyl)-1,2,4-oxadiazol-5-yl]-1-[4-(4-methoxyphenyl)piperazin-1-yl]propan-1-one] | 30
COc1ccc(-c2noc(CCC(=O)N3CCN(c4ccc(C)cc4)CC3)n2)cc1 [3-[3-(4-methoxyphenyl)-1,2,4-oxadiazol-5-yl]-1-[4-(4-methylphenyl)piperazin-1-yl]propan-1-one] | 30
COc1ccc(-c2noc(CCC(=O)N3CCN(c4ccc(C(F)(F)F)cc4)CC3)n2)cc1 [3-[3-(4-methoxyphenyl)-1,2,4-oxadiazol-5-yl]-1-[4-[4-(trifluoromethyl)phenyl]piperazin-1-yl]propan-1-one] | 30
COc1ccc(-c2noc(CCC(=O)N3CCN(c4ccccc4Br)CC3)n2)cc1 [KUC103370N] | 2.24
COc1ccc(-c2noc(CCC(=O)N3CCN(c4ccc(F)cc4)CC3)n2)cc1 [KUC103398N] | 30
COc1ccc(-c2noc(CCC(=O)N3CCC(c4cc(C)ccc4C)CC3)n2)cc1 [KUC103432N] | 1.33
COc1ccc(-c2ccc(CCC(=O)N3CCN(c4cc(C)ccc4C)CC3)o2)cc1 [KUC103447N] | 30
COc1ccc(-c2noc(CCC(=O)N3CCN(c4ccccc4C(F)(F)F)CC3)n2)cc1 [UNM-0000306082] | 1.95
COc1ccc(-c2noc(CCC(=O)N3CCN(c4ccc(Cl)cc4)CC3)n2)cc1 [UNM-0000306121] | 30
COc1ccc(-c2cc(CCC(=O)N3CCN(c4cc(C)ccc4C)CC3)[nH]n2)cc1 [UNM-0000306150] | 30

Continued, values first:

EC50 [µM] | Structure (SMILES)
3.43 | COc1cccc(-c2noc(CCC(=O)N3CCN(c4cc(C)ccc4C)CC3)n2)c1
5.46 | Cc1ccc(C)c(N2CCN(C(=O)CCc3nc(-c4ccccc4C)no3)CC2)c1
30 | Cc1ccc(C)c(N2CCN(C(=O)CCc3nc(-c4ccccc4C(F)(F)F)no3)CC2)c1
30 | COc1ccc(-c2noc(CCC(=O)N3CCN(c4ccccc4C)CC3)n2)cc1
1.56 | COc1ccc(-c2noc(CCC(=O)N3CCN(c4cccc(C)c4C)CC3)n2)cc1 [1-[4-(2,3-dimethylphenyl)-1-piperazinyl]-3-[3-(4-methoxyphenyl)-1,2,4-oxadiazol-5-yl]-1-propanone]
2.39 | COc1ccc(-c2noc(CCC(=O)N3CCN(c4cc(C)ccc4C)CC3)n2)cc1 [1-[4-(2,5-dimethylphenyl)-1-piperazinyl]-3-[3-(4-methoxyphenyl)-1,2,4-oxadiazol-5-yl]-1-propanone]
4.39 | Cc1ccc(-c2noc(CCC(=O)N3CCN(c4cc(C)ccc4C)CC3)n2)cc1 [1-[4-(2,5-dimethylphenyl)-1-piperazinyl]-3-[3-(4-methylphenyl)-1,2,4-oxadiazol-5-yl]-1-propanone]
30 | Cc1ccc(C)c(N2CCN(C(=O)CCc3nc(-c4ccc(C(F)(F)F)cc4)no3)CC2)c1 [1-[4-(2,5-dimethylphenyl)-1-piperazinyl]-3-[3-[4-(trifluoromethyl)phenyl]-1,2,4-oxadiazol-5-yl]-1-propanone]
30 | COc1ccc(-c2noc(CCCCC(=O)N3CCN(c4cc(C)ccc4C)CC3)n2)cc1 [1-[4-(2,5-dimethylphenyl)-1-piperazinyl]-5-[3-(4-methoxyphenyl)-1,2,4-oxadiazol-5-yl]-1-pentanone]
30 | COc1ccc(-c2noc(CC(=O)N3CCN(c4cc(C)ccc4C)CC3)n2)cc1 [1-[4-(2,5-dimethylphenyl)piperazin-1-yl]-2-[3-(4-methoxyphenyl)-1,2,4-oxadiazol-5-yl]ethanone]
1.03 | Cc1cccc(-c2noc(CCC(=O)N3CCN(c4cc(C)ccc4C)CC3)n2)c1 [1-[4-(2,5-dimethylphenyl)piperazin-1-yl]-3-[3-(3-methylphenyl)-1,2,4-oxadiazol-5-yl]propan-1-one]
0.305 | COc1ccc(-c2cc(CCC(=O)N3CCN(c4cc(C)ccc4C)CC3)on2)cc1 [1-[4-(2,5-dimethylphenyl)piperazin-1-yl]-3-[3-(4-methoxyphenyl)-1,2-oxazol-5-yl]propan-1-one]
30 | COc1ccc(-c2coc(CCC(=O)N3CCN(c4cc(C)ccc4C)CC3)n2)cc1 [1-[4-(2,5-dimethylphenyl)piperazin-1-yl]-3-[4-(4-methoxyphenyl)-1,3-oxazol-2-yl]propan-1-one]
4.2 | Cc1ccc(C)c(N2CCN(C(=O)CCc3nc(-c4ccccc4Br)no3)CC2)c1 [3-[3-(2-bromophenyl)-1,2,4-oxadiazol-5-yl]-1-[4-(2,5-dimethylphenyl)-1-piperazinyl]-1-propanone]
30 | Cc1ccc(C)c(N2CCN(C(=O)CCc3nc(-c4ccccc4Cl)no3)CC2)c1 [3-[3-(2-chlorophenyl)-1,2,4-oxadiazol-5-yl]-1-[4-(2,5-dimethylphenyl)-1-piperazinyl]-1-propanone]
30 | COc1ccc(-c2noc(CCC(=O)N3CCN(c4cccc(OC)c4)CC3)n2)cc1 [KUC103349N]
14.4 | COc1ccc(-c2noc(CCCC(=O)N3CCN(c4cc(C)ccc4C)CC3)n2)cc1 [KUC103353N]
0.664 | Cc1ccc(C)c(N2CCN(C(=O)CCc3nc(-c4ccc(F)cc4)no3)CC2)c1 [KUC103364N]
7.85 | Cc1ccc(C)c(N2CCN(C(=O)CCc3nc(-c4cccc(F)c4)no3)CC2)c1 [KUC103366N]
3.51 | Cc1ccc(C)c(N2CCN(C(=O)CCc3nc(-c4cccc(Br)c4)no3)CC2)c1 [KUC103367N]
0.708 | Cc1ccc(C)c(N2CCN(C(=O)CCc3nc(-c4cccc(C(F)(F)F)c4)no3)CC2)c1 [KUC103380N]
30 | Cc1ccc(C)c(N2CCN(C(=O)CCc3nc(-c4ccccc4F)no3)CC2)c1 [KUC103401N]
30 | Cc1ccc(C)c(N2CCN(C(=O)CCc3nc(-c4ccc(N(C)C)cc4)no3)CC2)c1 [KUC103409N]
1.16 | Cc1ccc(C)c(N2CCN(C(=O)CCc3nc(-c4ccccc4)no3)CC2)c1 [UNM-0000306070]
30 | COc1ccccc1-c1noc(CCC(=O)N2CCN(c3cc(C)ccc3C)CC2)n1 [UNM-0000306071]
1.6 | Cc1ccc(C)c(N2CCN(C(=O)CCc3nc(-c4ccc(Br)cc4)no3)CC2)c1 [UNM-0000306072]
2.91 | Cc1ccc(C)c(N2CCN(C(=O)CCc3nc(-c4ccc(Cl)cc4)no3)CC2)c1 [UNM-0000306083]
30 | Cc1ccc(C)c(N2CCN(C(=O)CCc3nc(-c4cccc(Cl)c4)no3)CC2)c1 [UNM-0000306086]
30 | COc1ccc(-c2noc(CCC(=O)N3CCN(c4cccc(C)c4)CC3)n2)cc1 [UNM-0000306125]
30 | COc1ccc(-c2cccc(CCC(=O)N3CCN(c4cc(C)ccc4C)CC3)c2)cc1 [UNM-0000306127]
